PMC7995829 (ACS chemical biology, 2020)
Read-outs that look alike come from different tables or passages of the source.

Assays:
BglX [1] = biological target: T1, BglX (Pseudomonas aeruginosa, UniProt Q9I311); assay: inhibition assay; assay type: biochemical
BglX [2] = biological target: T1, BglX; assay: inhibition assay; assay type: biochemical; settings: nonsubstrate, weak inhibitor

Structure (SMILES)	Ki (BglX [1])	Ki (BglX [2])
OC[C@H]1NC[C@H](O)[C@@H](O)[C@@H]1O [NOJ, 1-deoxynojirimycin]	4.4 ± 0.5 mM	
OC[C@H]1O[C@@H](O[C@H]2[C@H](O)[C@@H](O)C(O)O[C@@H]2CO)[C@H](O)[C@@H](O)[C@@H]1O (stereo partly shown) [cellobiose]		> 50 mM
OC[C@H]1O[C@@H](O[C@H]2[C@H](O)[C@@H](O)C(O)O[C@@H]2CO)[C@H](O)[C@@H](O)[C@H]1O (stereo partly shown) [lactose]		> 50 mM
OC1OC[C@@H](O[C@@H]2OC[C@@H](O[C@@H]3OC[C@@H](O)[C@H](O)[C@H]3O)[C@H](O)[C@H]2O)[C@H](O)[C@H]1O (stereo partly shown) [xylotriose]		> 50 mM
